Values after ≈ are worked out from the molar mass of the structure shown.
Experiment: Solubility behaviour (dissolved etofenamate over time) in distilled water
Type: physicochemical
Conditions: 22° C, read-out: Etofenamat gelöst
Method: Vergleich des Löslichkeitsverhaltens von reinem Etofenamat und zwei Etofenamat-Cyclodextrinzubereitungen gemäß der Erfindung:
Die Untersuchungen wurden in destilliertem Wasser bei 22° C durchgeführt und erbrachten die folgenden Ergebnisse: […]

## O=C(OCCOCCO)c1ccccc1Nc1cccc(C(F)(F)F)c1 [Etofenamat, 2-(2-Hydroxyethoxy)-ethyl-N-(α,α,α-trifluoro-m-tolyl)-anthranilat]
1 min
  solubility at 1 min: 9 µg/mL (≈ 24.4 µM)
3 min
  solubility at 0.05 h: 11 µg/mL (≈ 29.8 µM)
5 min
  solubility at 5 min: 11 µg/mL (≈ 29.8 µM)
10 min
  solubility at 10 min: 11 µg/mL (≈ 29.8 µM)
15 min
  solubility at 0.25 h: 13 µg/mL (≈ 35.2 µM)
30 min
  solubility at 0.5 h: 13 µg/mL (≈ 35.2 µM)
45 min
  solubility at 0.75 h: 11 µg/mL (≈ 29.8 µM)
60 min
  solubility at 1 h: 12 µg/mL (≈ 32.5 µM)

— EP0334218A1, “Solid, especially suited for oral and rectal adiministration, etofenamate-containing preparations” (HEXAL-PHARMA GMBH & CO. KG, priority 1988, dated 1989)
